According to US20220400680A1, “USE OF ACYLCYANAMIDES OR SALTS THEREOF FOR REGULATING PLANT GROWTH” (Alzchem Trostberg GmbH, priority 2019, published 2022):

Assays:
[1] = system: Table apple, type Boiken apple (C1); experiment: Greenhouse test, cut apple branches C1 dipped in test solution, bud development stage; type: in vivo, Malus domestica; set-up: key to Bud development stage, apple branches C1: Stage 0: Buds unchanged; Stage 1: Buds slightly swollen, first green tips visible; Stage 2: strongly swollen, green buds; Stage 3: Buds before breaking open, leaf or flower root already visible; Stage 4: Flower buds fully developed, but still closed, white petals already visible. In the case of the grapevine, stage 4 was the unfolding of the first leaves; Stage 5: Flowers fully open or, in the case of grapevine, unfolding of the flower roots (“Gescheine”) on the fully leafed sprouts; settings: for Dormancy-breaking effect according to the definition, apple C1: stage 4 reached or exceeded after 36 days vs negative control
Method: Greenhouse tests were conducted using cut fruit tree branches placed in water jars and maintained under controlled conditions with temperature regulation at approximately 22° C. and natural lighting. C1: Table Apple, Type Boiken Apple Table apple: Malus domestica type Boiken first described in 1828 in Bremen after Deichvogt Boiken. Apple type for rough locations and for almost every soil suitable scattered fruit type, whereby heavy soils and not too warm locations are required. Tree growth initially strong, later medium. Older crowns become broadly spherical and are loosely branched. Flowering starting medium-late and long lasting, petals large with little pink. Yield starting late (October) and irregular; with long shelf life and pressure resistance. […] The test solutions were prepared directly, i.e. without intermediate preparation of a concentrate. For each of the test substances A-1 to A-13, an aqueous solution of 0.15 mol of the test substance and 0.15 g BreakThru® OE-446 was prepared and filled up to a total of 500 g with water. Of bis-cyanamides A-14 and A-15, 0.075 mol each was filled up to 500 g in an analogous manner. These test solutions (in combination with the above 4 species/types Cx) were given the test numbers Cx-A1 to Cx-A15. […] This was done with the following evaluation scale: • Stage 0: […] Flower buds fully developed, but still closed, white petals already visible. […] Flowers fully open or, in the case of grapevine, unfolding of the flower roots (“[…]”) on the fully leafed sprouts.

[2] = system: Table apple, type Zabergäu-Renette (C2); experiment: Greenhouse test, cut apple branches C2 dipped in test solution, bud development stage; type: in vivo, Malus domestica; set-up: key to Bud development stage, apple branches C2: Stage 0: Buds unchanged; Stage 1: Buds slightly swollen, first green tips visible; Stage 2: strongly swollen, green buds; Stage 3: Buds before breaking open, leaf or flower root already visible; Stage 4: Flower buds fully developed, but still closed, white petals already visible. In the case of the grapevine, stage 4 was the unfolding of the first leaves; Stage 5: Flowers fully open or, in the case of grapevine, unfolding of the flower roots (“Gescheine”) on the fully leafed sprouts; settings: for Dormancy-breaking effect according to the definition, apple C2: stage 4 reached or exceeded after 36 days vs negative control
Method: Greenhouse tests were conducted using cut fruit tree branches placed in water jars and maintained under controlled conditions with temperature regulation at approximately 22° C. and natural lighting. C2: Table Apple, Type […] Table apple: Malus domestica type […] first developed in 1885 as a chance seedling in Hausen a.d. Zaber/Baden-Württemberg and initially grown as 'Hausener Graue […]'. No defined storage type; requires heavy soils (loam). Tree growth initially strong with oblique upright leading branches, later medium with flat branches. Crown broad and flat-spherical with flat fruiting wood. Leaves large, broad oval and with clearly separated tip. Triploid type with late and long-lasting flowering. Yield starting early, medium high and somewhat alternate. […] The test solutions were prepared directly, i.e. without intermediate preparation of a concentrate. For each of the test substances A-1 to A-13, an aqueous solution of 0.15 mol of the test substance and 0.15 g BreakThru® OE-446 was prepared and filled up to a total of 500 g with water. Of bis-cyanamides A-14 and A-15, 0.075 mol each was filled up to 500 g in an analogous manner. These test solutions (in combination with the above 4 species/types Cx) were given the test numbers Cx-A1 to Cx-A15. […] This was done with the following evaluation scale: • Stage 0: […] Flower buds fully developed, but still closed, white petals already visible. […] Flowers fully open or, in the case of grapevine, unfolding of the flower roots (“[…]”) on the fully leafed sprouts.

[3] = system: Table cherry, type Burlat (C3); experiment: Greenhouse test, cut cherry branches C3 dipped in test solution, bud development stage; type: in vivo, Prunus avium; set-up: key to Bud development stage, cherry branches C3: Stage 0: Buds unchanged; Stage 1: Buds slightly swollen, first green tips visible; Stage 2: strongly swollen, green buds; Stage 3: Buds before breaking open, leaf or flower root already visible; Stage 4: Flower buds fully developed, but still closed, white petals already visible. In the case of the grapevine, stage 4 was the unfolding of the first leaves; Stage 5: Flowers fully open or, in the case of grapevine, unfolding of the flower roots (“Gescheine”) on the fully leafed sprouts; settings: for Good to very good dormancy-breaking effect, cherry C3: stage 4 reached or exceeded after 21 days vs negative control; for Dormancy-breaking effect according to the definition, cherry C3: stage 4 reached or exceeded after 27 days vs negative control
Method: Greenhouse tests were conducted using cut fruit tree branches placed in water jars and maintained under controlled conditions with temperature regulation at approximately 22° C. and natural lighting. C3: Table Cherry, Type Burlat Table cherry: Prunus avium type Bigarreau Burlat or […] is a strong-growing somewhat sparse growing sweet cherry tree with horizontal side sprouts. The type has been known since 1930 and is one of the most important types in commercial cultivation. […] Medium but regular yields identify the type as a secondary type for early and dry areas. […] The test solutions were prepared directly, i.e. without intermediate preparation of a concentrate. For each of the test substances A-1 to A-13, an aqueous solution of 0.15 mol of the test substance and 0.15 g BreakThru® OE-446 was prepared and filled up to a total of 500 g with water. Of bis-cyanamides A-14 and A-15, 0.075 mol each was filled up to 500 g in an analogous manner. These test solutions (in combination with the above 4 species/types Cx) were given the test numbers Cx-A1 to Cx-A15. […] This was done with the following evaluation scale: • Stage 0: […] Flower buds fully developed, but still closed, white petals already visible. […] Flowers fully open or, in the case of grapevine, unfolding of the flower roots (“[…]”) on the fully leafed sprouts.

[4] = system: Grape, type Pinot Noir (C4); experiment: Greenhouse test, cut wine sprouts C4 dipped in test solution, bud development stage; type: in vivo, Vitis vinifera subsp. vinifera; set-up: key to Bud development stage, wine sprouts C4: Stage 0: Buds unchanged; Stage 1: Buds slightly swollen, first green tips visible; Stage 2: strongly swollen, green buds; Stage 3: Buds before breaking open, leaf or flower root already visible; Stage 4: Flower buds fully developed, but still closed, white petals already visible. In the case of the grapevine, stage 4 was the unfolding of the first leaves; Stage 5: Flowers fully open or, in the case of grapevine, unfolding of the flower roots (“Gescheine”) on the fully leafed sprouts; settings: for Dormancy-breaking effect according to the definition, wine C4: stage 4 reached or exceeded after 36 days vs negative control
Method: Greenhouse tests were conducted using cut fruit tree branches placed in water jars and maintained under controlled conditions with temperature regulation at approximately 22° C. and natural lighting. C4: Grape, Type Pinot Noir Grape: Vitis vinifera subsp. vinifera type Pinot Noir is an important and high quality red wine type that has existed for possibly 2000 years. It is cultivated all over the world because the type produces high quality red wines and has sufficient winter frost resistance. The type requires early and good areas with deep, warm, medium-heavy and fertile soils with good water supply. Pinot Noir produces regular, medium-high to high yields. However, there are a large number of clones that differ in yield, berry size and looseness. […] The test solutions were prepared directly, i.e. without intermediate preparation of a concentrate. For each of the test substances A-1 to A-13, an aqueous solution of 0.15 mol of the test substance and 0.15 g BreakThru® OE-446 was prepared and filled up to a total of 500 g with water. Of bis-cyanamides A-14 and A-15, 0.075 mol each was filled up to 500 g in an analogous manner. These test solutions (in combination with the above 4 species/types Cx) were given the test numbers Cx-A1 to Cx-A15. […] This was done with the following evaluation scale: • Stage 0: […] Flower buds fully developed, but still closed, white petals already visible. […] Flowers fully open or, in the case of grapevine, unfolding of the flower roots (“[…]”) on the fully leafed sprouts.

[5] = T1 (14 d), 0.15 mol (A-14, A-15: 0.075 mol) per 500 g solution
[6] = stage 4 reached or exceeded after 27 days vs negative control

Row | Compound | Bud development stage, apple branches C1 [1, 5] | Bud development stage, apple branches C1 ([1]; T2 (16 d)) | Bud development stage, apple branches C1 ([1]; T3 (21 d)) | Bud development stage, apple branches C1 ([1]; T4 (27 d)) | Bud development stage, apple branches C1 ([1]; T5 (36 d)) | Bud development stage, apple branches C1 ([1]; T6 (56 d)) | Bud development stage, apple branches C2 [2, 5] | Bud development stage, apple branches C2 ([2]; T2 (16 d)) | Bud development stage, apple branches C2 ([2]; T3 (21 d)) | Bud development stage, apple branches C2 ([2]; T4 (27 d)) | Bud development stage, apple branches C2 ([2]; T5 (36 d)) | Bud development stage, apple branches C2 ([2]; T6 (56 d)) | Bud development stage, cherry branches C3 [3, 5] | Bud development stage, cherry branches C3 ([3]; T2 (16 d)) | Bud development stage, cherry branches C3 ([3]; T3 (21 d)) | Bud development stage, cherry branches C3 ([3]; T4 (27 d)) | Bud development stage, cherry branches C3 ([3]; T5 (36 d)) | Bud development stage, cherry branches C3 ([3]; T6 (56 d)) | Bud development stage, wine sprouts C4 [4, 5] | Bud development stage, wine sprouts C4 ([4]; T2 (16 d)) | also measured
1 | N#CNC=O.[Na] [Example A-2, Sodium Formylcyanamide] | 0 | 0 | 4 | 5 | 5 | 5 | 0 | 0 | 1 | 3 | 5 | 5 | 1 | 2 | 5 | 5 | 5 | 5 | 0 | 1 | Good to very good dormancy-breaking effect, apple C1 [1, 6]: good to very good dormancy-breaking effect; Dormancy-breaking effect according to the definition, apple C1 [1]: dormancy-breaking effect; Dormancy-breaking effect according to the definition, apple C2 [2]: dormancy-breaking effect; Good to very good dormancy-breaking effect, cherry C3 [3]: good to very good dormancy-breaking effect; Dormancy-breaking effect according to the definition, cherry C3 [3]: dormancy-breaking effect; Bud development stage, wine sprouts C4 ([4]; T3 (21 d)): 3; Bud development stage, wine sprouts C4 ([4]; T4 (27 d)): 5; Bud development stage, wine sprouts C4 ([4]; T5 (36 d)): 5; Bud development stage, wine sprouts C4 ([4]; T6 (56 d)): 5; Effect compared with cyanamide, wine C4 ([4]; in vivo): equal effect with cyanamide; Good to very good dormancy-breaking effect, wine C4 [4, 6]: good to very good dormancy-breaking effect; Dormancy-breaking effect according to the definition, wine C4 [4]: dormancy-breaking effect
2 | COC(=O)NC#N.[Na] [Example A-3, Sodium methoxy carbonyl cyanamide] | 1 | 1 | 2 | 3 | 4 | 5 | 0 | 0 | 0 | 2 | 4 | 4 | 0 | 0 | 0 | 1 | 3 | 5 | 0 | 0 | Dormancy-breaking effect according to the definition, apple C1 [1]: dormancy-breaking effect; Dormancy-breaking effect according to the definition, apple C2 [2]: dormancy-breaking effect; Bud development stage, wine sprouts C4 ([4]; T3 (21 d)): 0; Bud development stage, wine sprouts C4 ([4]; T4 (27 d)): 1; Bud development stage, wine sprouts C4 ([4]; T5 (36 d)): 5; Bud development stage, wine sprouts C4 ([4]; T6 (56 d)): 5; Dormancy-breaking effect according to the definition, wine C4 [4]: dormancy-breaking effect
3 | N#CNC(=O)c1ccccc1.[Na] [Example A-4, Sodium benzoyl cyanamide] | 1 | 1 | 1 | 2 | 3 | 4 | 0 | 0 | 0 | 1 | 2 | 2 | 1 | 2 | 4 | 4 | 5 | 5 | 0 | 0 | Good to very good dormancy-breaking effect, cherry C3 [3]: good to very good dormancy-breaking effect; Dormancy-breaking effect according to the definition, cherry C3 [3]: dormancy-breaking effect; Bud development stage, wine sprouts C4 ([4]; T3 (21 d)): 0; Bud development stage, wine sprouts C4 ([4]; T4 (27 d)): 3; Bud development stage, wine sprouts C4 ([4]; T5 (36 d)): 5; Bud development stage, wine sprouts C4 ([4]; T6 (56 d)): 5; Dormancy-breaking effect according to the definition, wine C4 [4]: dormancy-breaking effect
